In general, IC50 refers to the concentration needed to halve the response being measured.

Some results are limits rather than exact numbers.

Drawing on patent US10875867B2, “Cyclic ether derivatives of pyrazolo[1,5-a]pyrimidine-3-carboxyamide” (Boehringer Ingelheim International GmbH, priority 2015, dated 2020), this text covers IC50 for two compounds.

In one assay the target is PDE 2A (Homo sapiens (Human), UniProt O00408). Put plainly: Phosphodiesterase (PDE) 2A assay with fluorescent substrate (IMAP, fluorescence polarization). It counts as biochemical. The following applies: labeled cAMP 30 nM, read-out: PDE2 IC50. Here is the method:
(§1) The IMAP system (Molecular Device) using fluorescence polarization (FP) as detection principle was used to measure enzyme activity. A fluorescent labeled cAMP was used as substrate for the reaction, generating a labeled AMP. The fluorescent AMP binds specifically to the large M(III)-based nano-particles which reduces the rotational speed of the substrate and thus increases its polarization. Detailed Method: The inhibition of PDE 2A or 10 enzyme activity was assessed using IMAP-Phosphodiesterase-cAMP fluorescence labeled substrate (Molecular Devices, Order No. R7506), IMAP TR-FRET screening express (Molecular Devices, Order No. R8160, the TR-FRET component will not be used) and PDE 2A or PDE10 protein expressed upon baculovirus infection in SF9 cells. […] The cells were collected by centrifugation and the pellet frozen in liquid nitrogen before it was resuspended in PBS containing 1% Triton X-100 and protease inhibitors. After 45 min incubation on ice, the cell debris was removed by centrifugation (13.000 rpm, 30 min). […] All reactions were performed in 384 well plates, Perkin Elmer black optiplates and IMAP reaction buffer with 0.1% Tween20 (kit component) Compounds were serial diluted in DMSO. […] Reaction is stopped by adding of 60 μl binding buffer for FP/cAMP (kit component).
For orientation: Polarisation of emitted light reports the rotation of a fluorescent probe.

A further assay concerns the target PDE10 (Homo sapiens (Human), UniProt Q9Y233). Put plainly: Phosphodiesterase (PDE) 10 assay with fluorescent substrate (IMAP, fluorescence polarization). It counts as biochemical. The following applies: labeled cAMP 30 nM. Here is the method:
as §1

Chain of PDE10 (Q9Y233 whole entry): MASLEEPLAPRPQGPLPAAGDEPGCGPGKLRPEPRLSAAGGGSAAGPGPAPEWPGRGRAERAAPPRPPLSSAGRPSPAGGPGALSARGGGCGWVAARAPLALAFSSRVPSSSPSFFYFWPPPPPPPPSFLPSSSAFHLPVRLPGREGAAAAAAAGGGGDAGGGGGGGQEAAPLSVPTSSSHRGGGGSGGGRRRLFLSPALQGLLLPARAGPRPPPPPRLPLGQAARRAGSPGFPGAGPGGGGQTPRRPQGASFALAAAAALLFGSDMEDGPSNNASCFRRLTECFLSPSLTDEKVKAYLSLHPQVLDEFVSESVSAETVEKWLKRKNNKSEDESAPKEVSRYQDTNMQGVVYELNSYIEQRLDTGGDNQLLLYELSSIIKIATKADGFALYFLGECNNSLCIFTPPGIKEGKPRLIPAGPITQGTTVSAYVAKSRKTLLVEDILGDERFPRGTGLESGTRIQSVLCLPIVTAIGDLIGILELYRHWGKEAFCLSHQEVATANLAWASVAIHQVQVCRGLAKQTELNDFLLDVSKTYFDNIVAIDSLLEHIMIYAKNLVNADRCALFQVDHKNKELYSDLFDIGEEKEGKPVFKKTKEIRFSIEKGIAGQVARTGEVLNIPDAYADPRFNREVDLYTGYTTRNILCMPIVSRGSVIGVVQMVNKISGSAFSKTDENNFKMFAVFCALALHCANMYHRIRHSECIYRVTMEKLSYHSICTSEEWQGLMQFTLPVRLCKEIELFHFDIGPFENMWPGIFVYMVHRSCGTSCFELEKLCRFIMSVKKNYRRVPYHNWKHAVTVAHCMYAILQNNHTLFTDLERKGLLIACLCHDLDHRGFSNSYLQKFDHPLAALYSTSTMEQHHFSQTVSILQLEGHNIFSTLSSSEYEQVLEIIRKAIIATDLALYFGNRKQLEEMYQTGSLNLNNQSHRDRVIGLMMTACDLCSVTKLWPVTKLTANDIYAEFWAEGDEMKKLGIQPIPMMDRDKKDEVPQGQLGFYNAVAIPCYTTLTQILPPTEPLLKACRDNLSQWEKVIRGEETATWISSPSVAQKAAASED
Chain of PDE 2A (O00408 whole entry, species assumed): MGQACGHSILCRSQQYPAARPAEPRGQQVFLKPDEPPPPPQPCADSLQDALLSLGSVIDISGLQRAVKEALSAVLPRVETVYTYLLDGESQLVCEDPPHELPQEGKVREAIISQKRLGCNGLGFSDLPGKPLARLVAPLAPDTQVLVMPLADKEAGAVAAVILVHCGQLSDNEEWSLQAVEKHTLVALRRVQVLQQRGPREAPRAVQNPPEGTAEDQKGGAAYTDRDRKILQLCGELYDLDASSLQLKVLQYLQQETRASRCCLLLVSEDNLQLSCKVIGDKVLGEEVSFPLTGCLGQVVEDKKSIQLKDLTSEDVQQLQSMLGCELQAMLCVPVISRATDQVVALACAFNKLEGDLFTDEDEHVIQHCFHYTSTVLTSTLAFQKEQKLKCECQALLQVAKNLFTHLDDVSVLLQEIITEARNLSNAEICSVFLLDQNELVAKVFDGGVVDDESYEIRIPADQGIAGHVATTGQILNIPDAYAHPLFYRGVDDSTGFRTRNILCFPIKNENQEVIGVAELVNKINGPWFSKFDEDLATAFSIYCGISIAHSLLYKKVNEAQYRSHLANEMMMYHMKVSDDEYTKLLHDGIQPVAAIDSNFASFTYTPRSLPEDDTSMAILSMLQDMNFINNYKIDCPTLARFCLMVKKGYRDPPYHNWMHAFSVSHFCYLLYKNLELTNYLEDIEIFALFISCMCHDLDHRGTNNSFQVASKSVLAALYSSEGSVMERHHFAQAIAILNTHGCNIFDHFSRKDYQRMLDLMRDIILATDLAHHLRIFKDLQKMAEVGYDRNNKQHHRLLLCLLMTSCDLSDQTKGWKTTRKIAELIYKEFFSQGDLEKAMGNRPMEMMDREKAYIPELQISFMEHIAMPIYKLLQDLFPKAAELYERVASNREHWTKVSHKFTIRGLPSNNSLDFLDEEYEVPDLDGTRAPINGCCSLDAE

As to `O=C(NC1(c2ccc(C(F)(F)F)cc2)CCOCC1O)c1cnn2cc(C3CC3)cnc12` (stereo not shown) [Example 60], the IC50 on PDE 2A is 22 nM; against PDE10, > 10000 nM.
`Cc1nn2cc(C3CC3)cnc2c1C(=O)NC1(c2ccc(C(F)(F)F)cn2)CCOCC1O` (racemic) [Example 63]: the IC50 at PDE 2A is 124 nM; against PDE10, > 10000 nM.
